Active and inactive are the calls of the source. The rule behind the calls is not given here.
Legend:
in vitro [1] = settings: PAMPA
in vitro [2] = settings: PAMPA; remark: listed apart in the source
Acetylcholinesterase [3] = biological target: T1, Acetylcholinesterase (Homo sapiens, UniProt P22303)
Description: Inhibition of human erythrocyte AChE using acetylthiocholine iodide as substrate preincubated for 5 mins followed by substrate addition measured at 2 mins time interval by Ellman's method

[4] = biological target: T2, Muscarinic acetylcholine receptor M1 (Homo sapiens, UniProt P11229); type: functional, cell-based, CHO
T2 sequence (P11229 whole entry): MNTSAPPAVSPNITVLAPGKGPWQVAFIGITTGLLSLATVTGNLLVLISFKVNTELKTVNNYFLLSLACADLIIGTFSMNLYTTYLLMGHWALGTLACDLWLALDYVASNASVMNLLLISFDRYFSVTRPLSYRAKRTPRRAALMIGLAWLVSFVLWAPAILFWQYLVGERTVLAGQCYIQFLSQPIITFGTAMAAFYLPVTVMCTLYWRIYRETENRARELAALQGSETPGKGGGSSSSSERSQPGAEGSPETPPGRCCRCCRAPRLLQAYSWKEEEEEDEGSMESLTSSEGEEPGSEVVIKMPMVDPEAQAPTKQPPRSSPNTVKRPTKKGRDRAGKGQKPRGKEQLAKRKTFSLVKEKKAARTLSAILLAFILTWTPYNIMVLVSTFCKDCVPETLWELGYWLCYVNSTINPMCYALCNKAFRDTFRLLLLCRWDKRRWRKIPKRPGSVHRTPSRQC

Cholinesterase = Cholinesterase (Homo sapiens, UniProt P06276)
Description: Inhibition of human plasmatic BuChE using butyrylthiocholine iodide as substrate preincubated for 5 mins followed by substrate addition measured at 2 mins time interval by Ellman's method

[5] = biological target: T3, Muscarinic acetylcholine receptor M1 (Homo sapiens) (UniProt P11229); assay: Positive allosteric modulation of human M1 mAChR expressed in CHO cells assessed as increase in oxotremorine M-stimulated calcium influx preincubated for 10 mins followed by oxotremorine M addition by Fluo-4 NW dye based fluorescence assay; type: functional, cell-based
T3 sequence (whole entry): T2 sequence (P11229 whole entry)

HepG2 = assay: cells; type: ADME, cell-based; settings: Homo sapiens, HepG2, 24 h
Description: Cytotoxicity against human HepG2 cells assessed as reduction in cell viability after 24 hrs by MTT assay

[6] = Solubility of the compound in PBS buffer; type: physicochemical
Acetylcholinesterase [7] = biological target: T1, Acetylcholinesterase; assay: Mixed type inhibition of human erythrocyte AChE assessed as enzyme-substrate-inhibitor complex using varying levels of acetylthiocholine iodide as substrate preincubated for 5 mins followed by substrate addition by Lineweaver-Burk plot analysis
Acetylcholinesterase [8] = biological target: T1, Acetylcholinesterase; assay: Mixed type inhibition of human erythrocyte AChE assessed as enzyme-inhibitor complex using varying levels of acetylthiocholine iodide as substrate preincubated for 5 mins followed by substrate addition by Lineweaver-Burk plot analysis

Sequence of Cholinesterase (P06276 whole entry): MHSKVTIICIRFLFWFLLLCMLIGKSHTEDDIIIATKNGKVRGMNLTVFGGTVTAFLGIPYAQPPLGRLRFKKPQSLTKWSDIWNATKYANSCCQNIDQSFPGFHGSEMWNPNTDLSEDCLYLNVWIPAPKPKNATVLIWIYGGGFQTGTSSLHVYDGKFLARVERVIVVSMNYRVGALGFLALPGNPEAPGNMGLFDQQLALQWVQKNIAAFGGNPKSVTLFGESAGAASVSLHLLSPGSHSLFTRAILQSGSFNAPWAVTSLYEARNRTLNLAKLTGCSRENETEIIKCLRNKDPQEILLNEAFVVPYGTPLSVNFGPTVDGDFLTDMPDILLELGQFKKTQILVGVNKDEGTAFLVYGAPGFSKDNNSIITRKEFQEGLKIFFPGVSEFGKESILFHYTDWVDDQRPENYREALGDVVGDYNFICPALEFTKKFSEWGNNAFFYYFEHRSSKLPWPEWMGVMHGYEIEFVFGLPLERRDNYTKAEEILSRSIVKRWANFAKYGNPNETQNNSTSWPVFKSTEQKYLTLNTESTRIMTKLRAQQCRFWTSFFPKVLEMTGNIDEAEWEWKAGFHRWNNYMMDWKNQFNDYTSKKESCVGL
T1 sequence (P22303 whole entry): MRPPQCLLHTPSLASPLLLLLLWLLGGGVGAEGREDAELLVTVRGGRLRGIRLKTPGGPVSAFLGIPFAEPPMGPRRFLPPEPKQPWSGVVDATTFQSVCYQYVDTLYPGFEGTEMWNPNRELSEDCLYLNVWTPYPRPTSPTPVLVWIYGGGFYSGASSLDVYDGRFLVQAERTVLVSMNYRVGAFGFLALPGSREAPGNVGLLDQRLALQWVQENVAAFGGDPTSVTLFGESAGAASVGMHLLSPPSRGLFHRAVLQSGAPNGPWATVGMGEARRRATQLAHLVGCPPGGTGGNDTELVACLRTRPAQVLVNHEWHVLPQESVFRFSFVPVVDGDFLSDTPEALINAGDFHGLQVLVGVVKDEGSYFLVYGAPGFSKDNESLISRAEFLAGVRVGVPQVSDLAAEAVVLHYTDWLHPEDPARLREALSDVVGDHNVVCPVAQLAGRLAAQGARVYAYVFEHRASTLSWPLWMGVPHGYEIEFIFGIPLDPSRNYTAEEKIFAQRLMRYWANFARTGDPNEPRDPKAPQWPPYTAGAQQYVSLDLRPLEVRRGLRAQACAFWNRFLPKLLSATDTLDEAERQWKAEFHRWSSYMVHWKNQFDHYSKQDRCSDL

`C[C@]12CC[C@H]3[C@@H](CCC4=CC(=O)CC[C@@]43C)[C@@H]1CC[C@@H]2O` [TESTOSTERONE] showed a Papp at 100 µM (in vitro [1]) of 8.5 ×10⁻⁶ cm/s and a Papp at 100 µM (in vitro [2]) of 11.6 ×10⁻⁶ cm/s.

With `COc1ccc(Cn2cc(C(=O)NCCCCCCCCNc3c4c(nc5ccc(OC)cc35)CCCC4)c(=O)c3ccccc32)cc1` the IC50 (Acetylcholinesterase [3]) was 74.3 µM, the IC50 [4] was 7.86 µM and the IC50 (Cholinesterase) was 12.4 µM.

With `COc1ccc(Cn2cc(C(=O)O)c(=O)c3ccccc32)cc1` the IC50 (Acetylcholinesterase [3]) was over 1000 µM, the IC50 (Cholinesterase) was over 1000 µM and the Activity [5] was “Active”.

Work on `COc1ccc(Cn2cc(C(=O)NCCCCCNc3c4c(nc5cc(Cl)ccc35)CCCC4)c(=O)c3ccccc32)cc1` yielded an IC50 (Acetylcholinesterase [3]) of 0.18 µM, an IC50 [4] of 3.27 µM and an IC50 (Cholinesterase) of 7.74 µM.

For `COc1ccc(Cn2cc(C(=O)NCCCCNc3c4c(nc5cc(Cl)ccc35)CCCC4)c(=O)c3ccccc32)cc1`, the IC50 (Acetylcholinesterase [3]) was 0.0896 µM, the IC50 [4] was 4.11 µM and the IC50 (Cholinesterase) was 3.12 µM.

For `COc1ccc(Cn2cc(C(=O)NCCCCNc3c4c(nc5ccccc35)CCCC4)c(=O)c3ccccc32)cc1`, the IC50 (Acetylcholinesterase [3]) was 0.491 µM, the IC50 [4] was 1.59 µM and the IC50 (Cholinesterase) was 1.32 µM.

Work on `Nc1c2c(nc3cc(Cl)ccc13)CCCC2` yielded an IC50 (HepG2) of 43.2 µM and an IC50 [4] of 6.09 µM.

`COc1ccc(Cn2cc(C(=O)NCCNc3c4c(nc5ccccc35)CCCC4)c(=O)c3ccccc32)cc1` gave a Papp at 100 µM (in vitro [1]) of 1.8 ×10⁻⁶ cm/s, an IC50 (HepG2) of 1.44 µM and an IC50 (Acetylcholinesterase [3]) of 0.187 µM. The IC50 [4] was 0.658 µM, the IC50 (Cholinesterase) was 0.0589 µM and the solubility [6] was “Insoluble”.

`COc1ccc(Cn2cc(C(=O)NCCNc3c4c(nc5cc(Cl)ccc35)CCCC4)c(=O)c3ccccc32)cc1` showed a Papp at 100 µM (in vitro [1]) of 2.37 ×10⁻⁶ cm/s, an IC50 (HepG2) of 3.48 µM and an IC50 (Acetylcholinesterase [3]) of 0.0745 µM. The IC50 [4] was 4.23 µM, the IC50 (Cholinesterase) was 0.0833 µM and the solubility [6] was “Insoluble”.

For `CC(=O)[C@H]1CC[C@H]2[C@@H]3CCC4=CC(=O)CC[C@]4(C)[C@H]3CC[C@]12C` [PROGESTERONE], the Papp at 100 µM (in vitro [1]) was 8.6 ×10⁻⁶ cm/s and the Papp at 100 µM (in vitro [2]) was 10.8 ×10⁻⁶ cm/s.

`COc1ccc(Cn2cc(C(=O)NCCCNc3c4c(nc5cc(Cl)ccc35)CCCC4)c(=O)c3ccccc32)cc1` gave a Papp at 100 µM (in vitro [1]) of 3.08 ×10⁻⁶ cm/s, a Ki (Acetylcholinesterase [7]) of 0.00157 µM and an IC50 (HepG2) of 4.99 µM. For the same molecule, the IC50 (Acetylcholinesterase [3]) was 0.0419 µM, the IC50 [4] was 4.01 µM and the IC50 (Cholinesterase) was 3.72 µM. The solubility [6] was “Insoluble” and the Ki (Acetylcholinesterase [8]) was 0.00328 µM.

With `COc1ccc(Cn2cc(C(=O)NCCCCCNc3c4c(nc5ccccc35)CCCC4)c(=O)c3ccccc32)cc1` the IC50 (Acetylcholinesterase [3]) was 0.293 µM, the IC50 [4] was 1.48 µM and the IC50 (Cholinesterase) was 0.823 µM.

In the case of `COc1ccc2nc3c(c(N)c2c1)CCCC3`, the IC50 (HepG2) is reported as 44.4 µM and the IC50 [4] is reported as 3.71 µM.

Molecule `COc1ccc(Cn2cc(C(=O)NCCCCCNc3c4c(nc5ccc(OC)cc35)CCCC4)c(=O)c3ccccc32)cc1` has an IC50 (Acetylcholinesterase [3]) of 8.02 µM, an IC50 [4] of 1.37 µM and an IC50 (Cholinesterase) of 6.16 µM.

Molecule `COc1ccc(Cn2cc(C(=O)NCCCNc3c4c(nc5ccccc35)CCCC4)c(=O)c3ccccc32)cc1` has a Papp at 100 µM (in vitro [1]) of 2.6 ×10⁻⁶ cm/s, an IC50 (HepG2) of 2.17 µM and an IC50 (Acetylcholinesterase [3]) of 0.129 µM. For the same molecule, the IC50 [4] was 0.455 µM, the IC50 (Cholinesterase) was 0.674 µM and the solubility [6] was “Insoluble”.

Work on `COc1ccc(Cn2cc(C(=O)NCCCCCCCCNc3c4c(nc5cc(Cl)ccc35)CCCC4)c(=O)c3ccccc32)cc1` yielded an IC50 (Acetylcholinesterase [3]) of 0.119 µM, an IC50 [4] of 9.45 µM and an IC50 (Cholinesterase) of 37.2 µM.

For `COc1ccc(Cn2cc(C(=O)NCCNc3c4c(nc5ccc(OC)cc35)CCCC4)c(=O)c3ccccc32)cc1`, the Papp at 100 µM (in vitro [1]) was 1.65 ×10⁻⁶ cm/s, the IC50 (HepG2) was 1.63 µM and the IC50 (Acetylcholinesterase [3]) was 2.64 µM. The IC50 [4] was 3.71 µM, the IC50 (Cholinesterase) was 0.408 µM and the solubility [6] was “Insoluble”.

For `COc1ccc(Cn2cc(C(=O)NCCCNc3c4c(nc5ccc(OC)cc35)CCCC4)c(=O)c3ccccc32)cc1`, the Papp at 100 µM (in vitro [1]) was 4.85 ×10⁻⁶ cm/s, the IC50 (HepG2) was 2.42 µM and the IC50 (Acetylcholinesterase [3]) was 2.24 µM. For the same molecule, the IC50 [4] was 2.48 µM, the IC50 (Cholinesterase) was 1.03 µM and the solubility [6] was “Insoluble”.

Work on `CN(C)CCCN1c2ccccc2Sc2ccccc21` [PROMAZINE] yielded a Papp at 100 µM (in vitro [1]) of 6.6 ×10⁻⁶ cm/s and a Papp at 100 µM (in vitro [2]) of 9.4 ×10⁻⁶ cm/s.

Molecule `COc1ccc(Cn2cc(C(=O)NCCCCCCCNc3c4c(nc5ccc(OC)cc35)CCCC4)c(=O)c3ccccc32)cc1` has a Papp at 100 µM (in vitro [1]) of 9.25 ×10⁻⁶ cm/s, an IC50 (HepG2) of 0.6 µM and an IC50 (Acetylcholinesterase [3]) of 1.53 µM. The IC50 [4] was 11.4 µM, the IC50 (Cholinesterase) was 49.3 µM and the solubility [6] was “Insoluble”.

In the case of `COc1ccc(Cn2cc(C(=O)NCCCCCCCNc3c4c(nc5ccccc35)CCCC4)c(=O)c3ccccc32)cc1`, the IC50 (Acetylcholinesterase [3]) is reported as 0.194 µM, the IC50 [4] is reported as 2.14 µM and the IC50 (Cholinesterase) is reported as 1.19 µM.

Molecule `COc1ccc(Cn2cc(C(=O)NCCCCNc3c4c(nc5ccc(OC)cc35)CCCC4)c(=O)c3ccccc32)cc1` has an IC50 (Acetylcholinesterase [3]) of 9.5 µM, an IC50 [4] of 1.07 µM and an IC50 (Cholinesterase) of 1.08 µM.

With `COc1ccc(Cn2cc(C(=O)NCCCCCCCCNc3c4c(nc5ccccc35)CCCC4)c(=O)c3ccccc32)cc1` the IC50 (Acetylcholinesterase [3]) was 0.768 µM, the IC50 [4] was 2.05 µM and the IC50 (Cholinesterase) was 1.28 µM.

`COc1ccc(Cn2cc(C(=O)NCCCCCCNc3c4c(nc5ccc(OC)cc35)CCCC4)c(=O)c3ccccc32)cc1` showed an IC50 (Acetylcholinesterase [3]) of 10 µM, an IC50 [4] of 8.61 µM and an IC50 (Cholinesterase) of 16.6 µM.

Molecule `COc1ccc(Cn2cc(C(=O)NCCCCCCNc3c4c(nc5ccccc35)CCCC4)c(=O)c3ccccc32)cc1` has a Papp at 100 µM (in vitro [1]) of 2.28 ×10⁻⁶ cm/s, an IC50 (HepG2) of 2.72 µM and an IC50 (Acetylcholinesterase [3]) of 0.194 µM. The IC50 [4] was 1.49 µM, the IC50 (Cholinesterase) was 0.28 µM and the solubility [6] was “Insoluble”.

For `COc1ccc(Cn2cc(C(=O)NCCCCCCNc3c4c(nc5cc(Cl)ccc35)CCCC4)c(=O)c3ccccc32)cc1`, the IC50 (Acetylcholinesterase [3]) was 0.0941 µM, the IC50 [4] was 2.78 µM and the IC50 (Cholinesterase) was 13.4 µM.

In the case of `COc1ccc(Cn2cc(C(=O)NCCCCCCCNc3c4c(nc5cc(Cl)ccc35)CCCC4)c(=O)c3ccccc32)cc1`, the Papp at 100 µM (in vitro [1]) is reported as 2.35 ×10⁻⁶ cm/s, the IC50 (HepG2) is reported as over 40 µM and the IC50 (Acetylcholinesterase [3]) is reported as 0.0517 µM. The IC50 [4] was 5.35 µM, the IC50 (Cholinesterase) was 3.34 µM and the solubility [6] was “Insoluble”.

Reference: ChEMBL document CHEMBL4196084 (Eur J Med Chem, 2018)
